Each structure is given as a SMILES string. Where two headings read alike, the source gives them in different places.

Series [1] addresses T1, androgen receptors (AR) (Homo sapiens, UniProt P10275).
T1 construct: expressed in transfected cells
T1 sequence (P10275 1-920): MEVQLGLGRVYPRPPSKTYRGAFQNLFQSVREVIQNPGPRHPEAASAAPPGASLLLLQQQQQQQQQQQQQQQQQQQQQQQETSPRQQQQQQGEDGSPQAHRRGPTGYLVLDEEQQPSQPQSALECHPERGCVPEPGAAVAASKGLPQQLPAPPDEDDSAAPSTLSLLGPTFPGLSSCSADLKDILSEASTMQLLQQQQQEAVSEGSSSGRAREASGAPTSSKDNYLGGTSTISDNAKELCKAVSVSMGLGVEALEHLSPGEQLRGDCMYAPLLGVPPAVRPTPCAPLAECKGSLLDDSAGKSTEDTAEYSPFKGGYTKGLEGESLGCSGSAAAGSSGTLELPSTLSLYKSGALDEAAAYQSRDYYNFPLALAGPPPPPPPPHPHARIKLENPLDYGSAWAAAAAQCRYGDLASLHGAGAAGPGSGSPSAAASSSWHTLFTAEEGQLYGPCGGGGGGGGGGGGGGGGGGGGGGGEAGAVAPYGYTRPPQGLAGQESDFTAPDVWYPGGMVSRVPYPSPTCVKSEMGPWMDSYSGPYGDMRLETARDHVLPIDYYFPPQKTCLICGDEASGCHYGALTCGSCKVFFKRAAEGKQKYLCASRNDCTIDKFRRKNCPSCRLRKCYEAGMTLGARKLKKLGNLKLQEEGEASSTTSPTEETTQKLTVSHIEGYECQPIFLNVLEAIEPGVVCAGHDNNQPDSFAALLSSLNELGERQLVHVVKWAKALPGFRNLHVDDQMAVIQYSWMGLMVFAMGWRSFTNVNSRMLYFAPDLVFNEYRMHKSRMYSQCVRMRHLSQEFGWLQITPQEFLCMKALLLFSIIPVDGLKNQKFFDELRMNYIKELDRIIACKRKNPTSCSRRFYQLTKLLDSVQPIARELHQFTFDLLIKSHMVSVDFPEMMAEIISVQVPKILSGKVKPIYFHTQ
As to conditions: cited from earlier work.

The target in series [2] is T2, ER-beta (Homo sapiens, UniProt Q92731).
T2 construct: expressed in transfected cells
T2 sequence (Q92731 whole entry): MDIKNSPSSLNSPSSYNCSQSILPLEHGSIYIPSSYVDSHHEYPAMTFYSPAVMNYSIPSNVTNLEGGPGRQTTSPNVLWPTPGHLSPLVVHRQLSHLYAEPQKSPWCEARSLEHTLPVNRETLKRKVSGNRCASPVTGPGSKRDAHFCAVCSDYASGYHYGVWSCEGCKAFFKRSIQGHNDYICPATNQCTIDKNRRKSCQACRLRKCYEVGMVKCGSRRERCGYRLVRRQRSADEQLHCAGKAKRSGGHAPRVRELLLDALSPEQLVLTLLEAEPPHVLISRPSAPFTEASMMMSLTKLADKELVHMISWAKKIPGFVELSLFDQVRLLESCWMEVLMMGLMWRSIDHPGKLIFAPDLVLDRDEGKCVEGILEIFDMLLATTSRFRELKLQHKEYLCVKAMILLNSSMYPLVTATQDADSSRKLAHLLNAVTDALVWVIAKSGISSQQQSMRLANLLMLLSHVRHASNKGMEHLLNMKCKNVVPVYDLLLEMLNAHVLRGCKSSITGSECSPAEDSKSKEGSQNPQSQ
The following applies: cited from earlier work.

Series [3] addresses T3, ER-alpha (Homo sapiens, UniProt P03372).
T3 construct: expressed in transfected cells
The following applies: cited from earlier work.

Series [4] deals with T4, Cyp1a2 (Homo sapiens, UniProt P05177).
T4 sequence (P05177 1-516): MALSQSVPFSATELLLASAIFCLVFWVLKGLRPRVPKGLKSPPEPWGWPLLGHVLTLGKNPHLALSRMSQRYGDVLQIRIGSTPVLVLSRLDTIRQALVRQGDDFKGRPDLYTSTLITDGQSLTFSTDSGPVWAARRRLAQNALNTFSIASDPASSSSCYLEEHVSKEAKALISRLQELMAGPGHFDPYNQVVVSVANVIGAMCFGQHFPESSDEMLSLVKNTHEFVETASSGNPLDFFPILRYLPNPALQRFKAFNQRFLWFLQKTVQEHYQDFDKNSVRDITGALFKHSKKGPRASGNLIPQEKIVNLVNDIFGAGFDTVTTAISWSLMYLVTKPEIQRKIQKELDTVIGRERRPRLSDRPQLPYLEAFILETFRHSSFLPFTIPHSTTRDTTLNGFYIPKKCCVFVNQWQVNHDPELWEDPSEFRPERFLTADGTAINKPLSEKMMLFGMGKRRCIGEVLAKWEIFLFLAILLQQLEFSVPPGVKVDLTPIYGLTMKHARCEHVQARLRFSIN
The following applies: human populations; cited from earlier work.

Series [5] concerns Cyp7b1. Put plainly: DHEA metabolism in Cyp7b1 KO rats (transposon insertion).
Series [6] relates to Cyp7b1. As to conditions: liver and kidney of Cyp7b-/- mice; cited from earlier work.
For series [7], the system named is Cyp1a2. As to conditions: Cyp1a2-/- mice; cited from earlier work.
Series [8] addresses T5, Cyp1a2 (Mus musculus, UniProt P00186).
T5 sequence (P00186 2-513): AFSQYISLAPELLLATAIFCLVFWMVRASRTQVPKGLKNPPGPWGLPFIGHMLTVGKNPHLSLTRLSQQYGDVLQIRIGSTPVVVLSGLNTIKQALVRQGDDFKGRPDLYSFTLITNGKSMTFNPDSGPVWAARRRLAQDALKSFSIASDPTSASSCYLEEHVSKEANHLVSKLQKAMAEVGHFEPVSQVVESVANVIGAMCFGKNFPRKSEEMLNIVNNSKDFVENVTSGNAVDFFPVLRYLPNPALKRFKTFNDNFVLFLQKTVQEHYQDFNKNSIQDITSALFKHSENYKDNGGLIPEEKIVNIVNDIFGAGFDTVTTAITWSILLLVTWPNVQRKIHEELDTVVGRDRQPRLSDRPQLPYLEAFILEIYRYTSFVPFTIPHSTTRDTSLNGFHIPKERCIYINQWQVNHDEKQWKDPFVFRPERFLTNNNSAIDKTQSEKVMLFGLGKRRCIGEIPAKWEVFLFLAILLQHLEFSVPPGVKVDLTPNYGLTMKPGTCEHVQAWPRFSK
As to conditions: WT mice; cited from earlier work.

The target of series [9] is Cyp2e1 (Mus musculus, UniProt Q05421). As to conditions: mouse, in vivo, 400 mg/kg; cited from earlier work.
Sequence of Cyp2e1 (Mus musculus, UniProt Q05421) (Q05421 whole entry): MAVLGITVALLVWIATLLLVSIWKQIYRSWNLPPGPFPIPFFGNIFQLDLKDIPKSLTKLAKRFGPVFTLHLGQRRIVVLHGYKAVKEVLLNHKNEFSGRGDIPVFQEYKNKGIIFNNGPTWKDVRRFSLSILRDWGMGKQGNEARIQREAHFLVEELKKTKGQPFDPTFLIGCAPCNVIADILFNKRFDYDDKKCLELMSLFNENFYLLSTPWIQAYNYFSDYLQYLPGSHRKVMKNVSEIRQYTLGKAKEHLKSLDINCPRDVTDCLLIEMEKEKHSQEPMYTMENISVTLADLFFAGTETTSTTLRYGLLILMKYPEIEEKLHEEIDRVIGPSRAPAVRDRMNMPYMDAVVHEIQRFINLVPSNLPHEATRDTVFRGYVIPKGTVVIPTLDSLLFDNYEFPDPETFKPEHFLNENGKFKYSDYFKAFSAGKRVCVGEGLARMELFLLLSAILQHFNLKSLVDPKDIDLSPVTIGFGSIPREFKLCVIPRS
Series [10] deals with Cyp2e1. As to conditions: Cyp2e1-/- mice; cited from earlier work.
Series [11] relates to Cyp3a. The following applies: cited from earlier work.
The test system of series [12] is Cyp3a. The following applies: cited from earlier work. The source holds these as a separate data set.

T3 sequence (P03372 whole entry): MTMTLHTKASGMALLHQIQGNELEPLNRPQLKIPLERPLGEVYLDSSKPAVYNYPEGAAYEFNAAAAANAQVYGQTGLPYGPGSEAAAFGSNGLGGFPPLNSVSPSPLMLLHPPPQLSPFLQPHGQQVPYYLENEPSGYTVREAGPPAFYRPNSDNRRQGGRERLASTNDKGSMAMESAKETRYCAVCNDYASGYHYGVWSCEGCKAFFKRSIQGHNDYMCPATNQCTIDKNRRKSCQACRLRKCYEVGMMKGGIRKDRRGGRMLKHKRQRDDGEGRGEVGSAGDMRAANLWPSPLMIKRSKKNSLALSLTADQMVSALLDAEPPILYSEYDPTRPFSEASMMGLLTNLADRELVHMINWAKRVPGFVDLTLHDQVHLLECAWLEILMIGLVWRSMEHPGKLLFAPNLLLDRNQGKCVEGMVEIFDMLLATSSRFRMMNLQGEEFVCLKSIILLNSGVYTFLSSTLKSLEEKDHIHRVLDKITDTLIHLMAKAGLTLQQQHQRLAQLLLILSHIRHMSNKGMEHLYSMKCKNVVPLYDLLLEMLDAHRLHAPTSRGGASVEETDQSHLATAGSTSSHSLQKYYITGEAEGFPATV

Take `C[C@]12CC[C@H](O)CC1=C[C@@H](O)[C@@H]1[C@@H]2CC[C@]2(C)C(=O)CC[C@@H]12` [7-alpha-hydroxy-DHEA]: the receptor activation result in series [1], in [2] and in [3] was “activates” in each case.
As to `Cn1c(=O)c2c(ncn2C)n(C)c1=O` [Caffeine], the half-life in [4] is 1.5 to 9.5 h.
As for `C[C@]12CC[C@H](O)CC1=CC[C@@H]1[C@@H]2CC[C@]2(C)C(=O)CC[C@@H]12` [DHEA, dehydroepiandrosterone], the “metabolism of DHEA to 7α-hydroxy-DHEA” value in series [5] is “unable to metabolize”. Besides, the “DHEA conversion to 7D” value in series [6] is reported as “significantly altered”.
For `Clc1cc2c(cc1Cl)Oc1cc(Cl)c(Cl)cc1O2` [TCDD, 2,3,7,8-Tetrachlorodibenzo-p-dioxin], the “liver-to-adipose (L/F) ratio” value is on record as 0.2 in series [7] and 3.6 in series [8].
As for `CC(=O)Nc1ccc(O)cc1` [acetaminophen], the “mice that succumb to toxicity and die” value in series [9] is “over 50%”. Also, the dose survived entry in series [10] is on record as “up to 400 mg/kg”.
Consider `CC(=O)O[C@@]12CO[C@@H]1C[C@H](O)[C@@]1(C)C(=O)[C@H](O)C3=C(C)[C@@H](OC(=O)[C@H](O)[C@@H](NC(=O)OC(C)(C)C)c4ccccc4)C[C@@](O)([C@@H](OC(=O)c4ccccc4)[C@H]21)C3(C)C` [docetaxel], for which the figures for the oral bioavailability in [11] (Cyp3a-/- mice) and in series [11] (WT mice) were 21.2% and 8.1%, respectively. Further, the “plasma docetaxel, Cyp3a-/- versus WT mice” value in [11] (after i.v. administration) was 6.8 fold. The “plasma level of docetaxel, Cyp3a-/- versus WT mice” value in series [11] (after oral administration) is listed as 17.7 fold. The “docetaxel metabolism (KO phenotype)” value in series [11] (mice deficient for gene family Cyp3a) is given as “function are unable to metabolize docetaxel”. Further, the results for the M-2 metabolite formation result in [12] (Cyp3a-/- microsomes) and in [12] (WT microsomes) were “not recognized” and “efficiently formed”, respectively.

The record behind these values is US20160174533A1 (priority 2009, published 2016).
